The record followed here is patent US6229011A, “N-aroylphenylalanine derivative VCAM-1 inhibitors” (Hoffman-La Roche Inc., priority 1998, dated 2001).

As usually defined, the IC50 is the point on the concentration scale where inhibition reaches its midpoint.

Test [1] concerns the target T1, VLA-4 (α4β1 integrin) (Homo sapiens, UniProt P05556+P13612). Put plainly: cell-based. It counts as cell-based. An excerpt:
Ramos (VLA-4)/VCAM-1 Cell-Based Screening Assay Protocol
Calcein-AM was purchased from Molecular Probes Inc.
VLA-4 (α4β1 integrin) antagonist activity, defined as ability to compete with cell-surface VLA-4 for binding to immobilized VCAM-1, was quantitated using a Ramos-VCAM-1 cell adhesion assay. Ramos cells bearing cell-surface VLA-4, were labeled with a fluorescent dye (Calcein-AM) and allowed to bind VCAM-1 in the presence or absence of test compounds.
Initially, this entailed coating 96 well plates (Nunc Maxisorp) with recombinant human VCAM-1 (100 ng in 100 μl PBS), sealing each plate and allowing the plates to stand at 4° C. for Å 18 hr. The VCAM-coated plates were subsequently washed twice with 0.05% Tween-20 in PBS, and then blocked for 1 hr (room temperature) with 200 μl of Blocking Buffer (1% BSA/0.02% thimerosal) to reduce non-specific binding. Following the incubation with Blocking Buffer, plates were inverted, blotted and the remaining buffer aspirated. Each plate was then washed with 300 μl PBS, inverted and the remaining PBS aspirated.
Test compounds were dissolved in 100% DMSO and then diluted 1:25 in VCAM Cell Adhesion Assay Buffer (4 mM CaCl2, 4 mM MgCl2 in 50 mM TRIS-HCl, pH 7.5) (final DMSO=4%). […] 100 μl/well of each dilution was added to the VCAM-coated plates, followed by 100 μl of Ramos cells (200,000 cells/well in 1% BSA/PBS). […] Plates were inverted to remove non-adherent cells, blotted and 300 μl/well PBS added. Plates were again inverted, blotted and the remaining buffer gently aspirated. 100 μl Lysis Buffer (0.1% SDS in 50 mM TRIS-HCl, pH 8.5) was added to each well and agitated for 2 min on a rotary shaking platform.

Test [2] addresses T1, VLA-4 (α4β1 integrin). Put plainly: biochemical. It counts as binding. How it is done:
VLA-4/VCAM-1 Screening Assay
VLA-4 antagonist activity, defined as ability to compete for binding to immobilized VCAM-1, was quantitated using a solid-phase, dual antibody ELISA. VLA-4 (α4β1 integrin) bound to VCAM-1 is detected by a complex of anti-integrin β1 antibody: HRP-conjugated anti-mouse IgG: chromogenic substrate (K-Blue). Initially, this entailed coating 96 well plates (Nunc Maxisorp) with recombinant human VCAM-1 (0.4 μg in 100 μl PBS), sealing each plate and then allowing the plates to stand at 4° C. for Å 18 hr. […] On the day of assay, all plates are washed twice with VCAM Assay Buffer (200 μl/well of 50 mM Tris-HCl. 100 mM NaCl, 1 mM MnCl2), 0.05% Tween 20; pH 7.4). Test compounds are dissolved in 100% DMSO and then diluted 1:20 in VCAM Assay Buffer supplemented with 1 mg/mL BSA (i.e., final DMSO=5%). […] 100 μl per well of each dilution is added to the VCAM-coated plates, followed by 10 μl of Ramos cell-derived VLA-4. These plates are sequentially mixed on a platform shaker for 1 min, incubated for 2 hr at 37° C., and then washed four times with 200 μl/well VCAM Assay Buffer. 100 μl of mouse anti-human integrin β1 antibody is added to each well (0.6 μg/mL in VCAM Assay Buffer+1 mg/mL BSA) and allowed to incubate for 1 hr at 37° C. At the conclusion of this incubation period, all plates are washed four times with VCAM Assay Buffer (200 μl/well). A corresponding second antibody, HRP-conjugated goat anti-mouse IgG (100 μl per well @1:800 dilution in VCAM Assay Buffer+1 mg/mL BSA), is then added to each well, followed by a 1 hr incubation at room temperature and concluded by three washes (200 μl/well) with VCAM Assay Buffer. Color development is initiated by addition of 100 μl K-Blue per well (15 min incubation, room temp) and terminated by addition of 100 μl Red Stop Buffer per well. […] Results are calculated as % inhibition of total binding (i.e. VLA-4+VCAM-1 in the absence of test compound).

The target in the next test is VLA-4 (Homo sapiens, UniProt P05556+P13612). Put plainly: IC50 of table 7, assay not given. The note with it: table 7, Examples 79-84; assay not stated.
VLA-4, sequence (P13612 34-1032): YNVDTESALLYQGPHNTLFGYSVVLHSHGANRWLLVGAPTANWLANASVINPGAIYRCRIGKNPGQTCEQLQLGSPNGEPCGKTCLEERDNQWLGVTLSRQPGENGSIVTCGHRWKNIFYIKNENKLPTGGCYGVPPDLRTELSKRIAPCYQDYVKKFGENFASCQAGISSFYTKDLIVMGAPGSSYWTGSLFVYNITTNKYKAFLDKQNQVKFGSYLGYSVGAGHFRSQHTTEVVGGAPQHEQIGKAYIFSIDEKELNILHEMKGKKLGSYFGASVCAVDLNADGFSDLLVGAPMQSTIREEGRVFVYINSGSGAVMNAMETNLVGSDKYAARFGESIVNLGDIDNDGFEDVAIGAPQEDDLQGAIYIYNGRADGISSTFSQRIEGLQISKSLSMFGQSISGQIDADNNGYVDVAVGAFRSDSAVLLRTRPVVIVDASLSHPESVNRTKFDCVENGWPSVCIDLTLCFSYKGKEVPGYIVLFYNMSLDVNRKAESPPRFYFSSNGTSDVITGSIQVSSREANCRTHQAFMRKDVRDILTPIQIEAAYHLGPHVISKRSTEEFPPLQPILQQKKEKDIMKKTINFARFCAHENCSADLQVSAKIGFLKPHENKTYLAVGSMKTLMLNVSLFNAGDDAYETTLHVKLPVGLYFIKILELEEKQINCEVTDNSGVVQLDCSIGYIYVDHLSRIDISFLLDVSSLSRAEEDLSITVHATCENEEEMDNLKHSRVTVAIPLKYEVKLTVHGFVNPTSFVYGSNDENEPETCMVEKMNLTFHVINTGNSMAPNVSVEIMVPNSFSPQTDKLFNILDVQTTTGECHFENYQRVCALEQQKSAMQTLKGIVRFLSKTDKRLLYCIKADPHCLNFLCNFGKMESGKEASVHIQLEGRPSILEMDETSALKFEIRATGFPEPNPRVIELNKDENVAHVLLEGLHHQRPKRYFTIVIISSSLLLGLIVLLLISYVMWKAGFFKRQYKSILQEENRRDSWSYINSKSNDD
VLA-4, sequence (P05556 21-798): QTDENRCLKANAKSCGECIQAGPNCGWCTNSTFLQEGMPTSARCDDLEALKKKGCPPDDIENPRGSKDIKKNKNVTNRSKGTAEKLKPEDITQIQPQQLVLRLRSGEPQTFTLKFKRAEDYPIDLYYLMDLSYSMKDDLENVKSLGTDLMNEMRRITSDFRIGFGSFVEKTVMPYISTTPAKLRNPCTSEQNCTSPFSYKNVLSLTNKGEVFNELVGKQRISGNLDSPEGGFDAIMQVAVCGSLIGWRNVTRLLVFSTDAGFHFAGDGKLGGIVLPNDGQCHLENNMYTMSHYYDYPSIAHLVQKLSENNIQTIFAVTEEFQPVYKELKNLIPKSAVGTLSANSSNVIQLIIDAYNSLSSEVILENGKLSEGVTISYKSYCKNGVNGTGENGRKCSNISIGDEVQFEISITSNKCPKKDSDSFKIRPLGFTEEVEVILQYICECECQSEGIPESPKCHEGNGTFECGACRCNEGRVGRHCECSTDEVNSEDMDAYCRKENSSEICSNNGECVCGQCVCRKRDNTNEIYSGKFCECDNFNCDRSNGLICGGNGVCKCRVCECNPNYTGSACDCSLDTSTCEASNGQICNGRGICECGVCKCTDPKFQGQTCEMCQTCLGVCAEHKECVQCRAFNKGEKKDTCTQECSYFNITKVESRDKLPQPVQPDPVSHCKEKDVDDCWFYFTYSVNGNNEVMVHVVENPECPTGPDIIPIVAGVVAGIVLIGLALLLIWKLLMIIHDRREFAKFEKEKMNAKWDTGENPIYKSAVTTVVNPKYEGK
Setting [3] is: table 14, Ramos cells binding to immobilized VCAM-1, read-out: Ramos IC50.
[4] abbreviates: table 13, competition for binding of Ramos cell-derived VLA-4 to immobilized VCAM-1, read-out: ELISA IC50.
The mark [5] stands for this setting: table 9, Examples 97-102, assay not given, values equal ELISA table 13, read-out: IC50.
The mark [6] stands for this setting: table 11, Examples 151-155, assay not given, values equal Ramos table 14, read-out: IC50.
The mark [7] stands for this setting: table 12, Examples 156-160, assay not given, values equal Ramos table 14, read-out: IC50.

T1 sequence (P13612 34-1032): as the sequence (P13612 34-1032) above
T1 sequence (P05556 21-798): as the sequence (P05556 21-798) above

Turning to “4-[(2S,4R)-3-Acetyl-2-phenyl-4-(3-pyridinylmethyl)-5-oxo-1-imidazolinyl]-N- [(2-chloro-6-methylphenyl)carbonyl]-L-phenylalanine and 4-[(2R,4R)-3-acetyl-2-phenyl-4-(3-pyridinylmethyl)-5-oxo-1-imidazolinyl)-N-[(2-chloro-6-methylphenyl)carbonyl]-L-phenylalanine [Example 171]”, the IC50 at VLA-4 (α4β1 integrin) [1] (setting [3]) is 13.5 nM. For the compound `O=C(Nc1ccc(C[C@H](NC(=O)c2cccc3ccccc23)C(=O)O)cc1)c1c(Cl)cccc1Cl` [Example 15], the IC50 was found to be 5.9 nM on VLA-4 (α4β1 integrin) [2] (setting [4]) and 2.6 nM on VLA-4 (α4β1 integrin) [1] (setting [3]).

As for `O=C(Nc1ccc(C[C@H](NC(=O)c2c(F)cccc2C(F)(F)F)C(=O)O)cc1)c1c(Cl)cccc1Cl` [Example 16], the half-maximal inhibitory concentration (IC50) at VLA-4 (α4β1 integrin) [2] (setting [4]) was 0.44 nM. Still for that read-out and setting: for `CC(C)(C)c1ccccc1C(=O)N[C@@H](Cc1ccc(NC(=O)c2c(Cl)cccc2Cl)cc1)C(=O)O` [Example 17] the value was 1.85 nM; for `COc1ccc(C(=O)N[C@@H](Cc2ccc(NC(=O)c3c(Cl)cccc3Cl)cc2)C(=O)O)c(Cl)c1` [Example 19], 1.87 nM. For the compound `O=C(N[C@@H](Cc1ccc(NC(=O)c2c(Cl)cccc2Cl)cc1)C(=O)O)c1cccc(Cl)c1Cl` [Example 20], the half-inhibitory concentration (IC50) on VLA-4 (α4β1 integrin) [1] (setting [3]) was 1.63 nM. Still for that read-out and setting: then `Cc1cccc(C(=O)N[C@@H](Cc2ccc(NC(=O)c3c(Cl)cccc3Cl)cc2)C(=O)O)c1Cl` [Example 21], with 1.27 nM; and `O=C(N[C@@H](Cc1ccc(NC(=O)c2c(Cl)cccc2Cl)cc1)C(=O)O)c1ccc(Br)cc1Cl` [Example 22], with 1.32 nM. Consider `Cc1ccc(Cl)c(C(=O)N[C@@H](Cc2ccc(NC(=O)c3c(Cl)cccc3Cl)cc2)C(=O)O)c1` [Example 23], for which the half-maximal inhibitory concentration (IC50) on VLA-4 (α4β1 integrin) [2] (setting [4]) is 0.48 nM; at VLA-4 (α4β1 integrin) [1] (setting [3]), 316 nM. In the case of `COc1ccc(Br)c(C(=O)N[C@@H](Cc2ccc(NC(=O)c3c(Cl)cccc3Cl)cc2)C(=O)O)c1` [Example 24], at VLA-4 (α4β1 integrin) [1] (setting [3]), the IC50 came to 20 nM. Take `CSc1ccccc1C(=O)N[C@@H](Cc1ccc(NC(=O)c2c(Cl)cccc2Cl)cc1)C(=O)O` [Example 25]: the IC50 amounted to 0.42 nM on VLA-4 (α4β1 integrin) [2] (setting [4]) and 103 nM on VLA-4 (α4β1 integrin) [1] (setting [3]).

`O=C(N[C@@H](Cc1ccc(NC(=O)c2c(Cl)cccc2Cl)cc1)C(=O)O)c1ccccc1Cc1ccccc1` [Example 31, 4-[[(2,6-dichlorophenyl)carbonyl]amino]-N-[[(2-phenylmethyl)phenyl]carbonyl]-L-phenylalanine]: the IC50 at VLA-4 (α4β1 integrin) [2] (setting [4]) turned out to be 0.51 nM.

Turning to `Cc1cccc(Cl)c1C(=O)N[C@@H](Cc1ccc(N2C(=O)[C@H](C)N(C)C2=O)cc1)C(=O)O` [Example 79], at VLA-4, the IC50 stood at 53 nM. Same read-out and setting: for `Cc1cccc(Cl)c1C(=O)N[C@@H](Cc1ccc(N2C(=O)[C@H](C(C)C)N(C)C2=O)cc1)C(=O)O` [Example 80] the value was 24 nM. Still for that read-out and setting: then `Cc1cccc(Cl)c1C(=O)N[C@@H](Cc1ccc(N2C(=O)[C@@H](CC(C)C)N(C)C2=O)cc1)C(=O)O` [Example 82], with 56 nM; and `Cc1cccc(Cl)c1C(=O)NC(Cc1ccc(N2C(=O)C3Cc4ccccc4CN3C2=O)cc1)C(=O)O` (stereo not shown) [Example 83], with 72 nM; and `Cc1cccc(Cl)c1C(=O)N[C@@H](Cc1ccc(N2C(=O)[C@H](Cc3ccccc3)N(C)C2=O)cc1)C(=O)O` [Example 84], with 73 nM. As to `CCc1cccc(C)c1C(=O)N[C@@H](Cc1ccc(NC(=O)c2c(Cl)cccc2Cl)cc1)C(=O)O` [Example 92], the IC50 came out at 0.42 nM on VLA-4 (α4β1 integrin) [2] (setting [4]); 10 nM on VLA-4 (α4β1 integrin) [1] (table 8, Examples 90-95, read-out: IC50 Ramos); 255 nM at VLA-4 (α4β1 integrin) [1] (setting [3]). As for `CC(=O)N1[C@H](CC(C)C)C(=O)N(c2ccc(C[C@H](NC(=O)c3c(C)cccc3Cl)C(=O)O)cc2)[C@H]1c1ccc(O)cc1` [Example 97], at VLA-4 (α4β1 integrin) [2] (setting [5]), the IC50 amounted to 0.44 nM. For the compound `CC(=O)N1[C@H](CC(C)C)C(=O)N(c2ccc(C[C@H](NC(=O)c3c(C)cccc3Cl)C(=O)O)cc2)[C@@H]1c1ccc(O)cc1` [Example 98], the IC50 on VLA-4 (α4β1 integrin) [2] (setting [5]) is 2.35 nM. The same measure, in the same setting: then `CC(=O)N1CN(c2ccc(C[C@H](NC(=O)c3c(C)cccc3Cl)C(=O)O)cc2)C(=O)[C@@H]1CC(C)C` [Example 101], with 9.9 nM; and `CC(=O)N1[C@H](CC(C)C)C(=O)N(c2ccc(C[C@H](NC(=O)c3c(C)cccc3Cl)C(=O)O)cc2)[C@@H]1C(C)(C)C` [Example 102], with 41 nM.

Consider `COc1ccc(Br)c(C(=O)N[C@@H](Cc2ccc(NC(=O)c3c(C)ccnc3C)cc2)C(=O)O)c1` [Example 108], for which the IC50 on VLA-4 (α4β1 integrin) [2] (setting [4]) was found to be 0.63 nM; at VLA-4 (α4β1 integrin) [1] (setting [3]), 22 nM. Turning to `Cc1cc(C[C@H](NC(=O)c2c(C)cccc2Cl)C(=O)O)ccc1NC(=O)CCc1cccc(O)c1` [Example 120], the figures for the IC50 on VLA-4 (α4β1 integrin) [2] (setting [4]) and at VLA-4 (α4β1 integrin) [1] (setting [3]) were 4.5 nM and 439 nM, respectively. For `Cc1cc(C[C@H](NC(=O)c2c(C)cccc2Cl)C(=O)O)ccc1NC(=O)Cc1cccc(O)c1` [Example 121], the IC50 on VLA-4 (α4β1 integrin) [2] (setting [4]) came to 5.8 nM; at VLA-4 (α4β1 integrin) [1] (setting [3]), 515 nM. Regarding `Cc1cc(C[C@H](NC(=O)c2c(C)cccc2Cl)C(=O)O)ccc1NC(=O)c1cccc([N+](=O)[O-])c1` [Example 122], the IC50 at VLA-4 (α4β1 integrin) [2] (setting [4]) came out at 0.67 nM; on VLA-4 (α4β1 integrin) [1] (setting [3]), 430 nM. The matching figures for `Cc1cc(C[C@H](NC(=O)c2c(C)cccc2Cl)C(=O)O)ccc1NC(=O)c1c(Cl)cccc1Cl` [Example 123]: 1.7 nM and 316 nM. In the case of `Cc1cccc(Cl)c1C(=O)N[C@@H](Cc1ccc(NC(=O)c2sc(C(C)C)nc2C)cc1)C(=O)O` [Example 152], the IC50 on VLA-4 (α4β1 integrin) [1] (setting [6]) was 967 nM. Consider `Cc1cccc(Cl)c1C(=O)N[C@@H](Cc1ccc(NC(=O)c2c(C)noc2C)cc1)C(=O)O` [Example 153], for which the IC50 at VLA-4 (α4β1 integrin) [1] (setting [6]) amounted to 975 nM. For `Cc1cccc(Cl)c1C(=O)N[C@@H](Cc1ccc(NC(=O)c2nn(-c3ccccc3)nc2C)cc1)C(=O)O` [Example 154], the IC50 on VLA-4 (α4β1 integrin) [1] (setting [6]) turned out to be 2470 nM.

Regarding `Cc1cc2ncc(C(=O)Nc3ccc(C[C@H](NC(=O)c4c(C)cccc4Cl)C(=O)O)cc3)c(C)n2n1` [Example 155], at VLA-4 (α4β1 integrin) [1] (setting [6]), the IC50 turned out to be 644 nM.

`Cc1noc(C)c1C(=O)N[C@@H](Cc1ccc(NC(=O)c2c(Cl)cccc2Cl)cc1)C(=O)O` [Example 158]: the IC50 on VLA-4 (α4β1 integrin) [1] (setting [7]) worked out at 946 nM. The same measure, in the same setting: then `Cc1nn(-c2ccccc2)nc1C(=O)N[C@@H](Cc1ccc(NC(=O)c2c(Cl)cccc2Cl)cc1)C(=O)O` [Example 159], with 988 nM.
